Structures can show the parent of a compound that is named as a salt.
Assays:
[1] = tested on: Human immunodeficiency virus 1; test: Effective dose was evaluated for the inhibition of viral replication (PBMC); format: functional; conditions: read-out: ED50 (the source's name)
[2] = biological target: Human immunodeficiency virus type 1 reverse transcriptase (Human immunodeficiency virus 1) (UniProt Q72547); test: Compound was tested in vitro for percent inhibition of HIV- I reverse transcriptase (RT) at dose 100 uM

| EC50 [1] | inhibition [2] | Compound |
| --- | --- | --- |
| 0.1 nM |  | CC(C)Nc1cccnc1N1CCN(C(=O)c2cc3cc(NS(C)(=O)=O)ccc3[nH]2)CC1 [DELAVIRDINE MESYLATE] |
| 1 nM |  | CCNc1cccnc1N1CCN(C(=O)c2cc3cc(OC)ccc3[nH]2)CC1 [ATEVIRDINE SULPHATE] |
|  | 38% | CCN1CC2(CCN(C(=O)c3cc4cc(NS(C)(=O)=O)ccc4[nH]3)CC2)c2ncccc21 |
